Here are results for 7 compounds from US6855308B2, “PACAP compositions and methods for tumor imaging and therapy” (Thomas Jefferson University, priority 2001, dated 2005).

Broadly, the IC50 is the concentration needed to halve the response being measured. One may read the tissue uptake as the share of the injected amount in each gram of the tissue.

Entries after “also recorded” stand apart in the source; their conditions may differ. Ends that are not written are not given here. * marks the point of attachment. DTPA = O=C(O)CN(CCN(CC(=O)O)CC(=O)O)CCN(CC(=O)O)CC(=O)*

Series [1] concerns PACAP, VIP-R1 and VIP-R2 receptors. The note with it: cited from earlier work.
Another series deals with normal lung membrane. Particulars: cited from earlier work.
The subject of series [2] is internal anal sphincter (IAS) smooth muscle. The experiment in a line: basal tension of opossum internal anal sphincter (IAS) smooth muscle. Particulars: 10^−5 M concentration. Also on record: species or system opossum (Didelphis virginiana). How it is done: PACAP27 is known to cause a concentration-dependent fall in the basal tension of IAS, by the assay described in Rattan S et al., J. Pharmcol. Exper. Thera. 263: 722-728, 1997, the entire disclosure of which is herein incorporated by reference. This IAS assay was performed with increasing concentrations of TP 3475 until a maximum fall is reached, essentially as described below. PACAP27 was used as a control.
[…]. The large blood vessels and extraneous tissues including the external […] were removed, and the anal canal was opened and pinned flat with the mucosal side up on a dissecting tray containing oxygenated Krebs' solution (NaCl, 118.07; KCl, 4.69; CaCl2, 2.52; MgS04, 1.16; NaH2PO4, 1.01; NaHC03, 25; and glucose, 11.10). The mucosa was removed, and internal anal sphincter circular smooth muscle strips (approximately 2 mm×1 cm) were prepared from the lowermost part of the anal canal.
Measurement of isometric tension—The IAS smooth muscle strips were transferred to temperature-controlled 2 ml “muscle baths” containing Krebs' solution, bubbled continuously with a mixture of 95% O2-5% CO2. […] Isometric tensions were recorded on a Beckman Dynograph recorder (Beckman Instruments, Schiller Park, Ill.). […] Both optimal length and base-line were determined as described in Rattan S et al., 1997, supra.

A further series in a line: in vivo. Particulars: nude, mouse, iv, total radioactivity.
In another series the test system is T47D xenografts. Put plainly: receptor blocking study with PACAP in tumor-bearing mice. It is filed as in vivo. The note with it: PACAP pre-injected; nude mice with T47D xenografts. The protocol: In order to determine receptor specificity of […] in human breast tumors, receptor blocking studies with PACAP were performed. In nude mice with T47D xenografts, ^99mTc-TP 3475 tumor uptake was reduced by approximately 50% when PACAP was pre-injected.

Series [3] is classed as physicochemical. The protocol: For the metallization reaction, the vial contents were allowed to come to ambient temperature, and 10-40 mCi ^99mTc in 200 μl 0.9% NaCl was injected into the vial. The mixture was incubated at 100° C. for 30 min, and the pH of the reaction mixture was raised to 6-6.5 by addition of 1 ml 0.1 M Na2HPO4. One-hundred twenty-five mg of Na-ascorbate was added as a stabilizing agent. […] The yields at 22° C. are quantitative as determined by HPLC, producing a single peak at Rt. 12.5 min.

On the set-up of series [4]: species or system Sprague-Dawley rats. Particulars: rat, in vivo, iv. The protocol: The blood clearance of ^99mTc-TP 3475 was studied in Sprague-Dawley rats as follows. Three Sprague Dawley rats, each weighing approximately 250 grams, were injected through one lateral tail vein with one mCi of ^99mTc-TP 3475, and serial blood samples were drawn in triplicate through the other lateral tail vein at 1, 5, 10, 15, and 30 minutes post-injection, and at 1, 2, 4, 6, 18 and 24 hours post injection. The blood samples were weighed, and radioactivity was counted against a standard ^99mTc solution prepared at the time of injection using standard scintillation counting techniques. The % ID/g plotted as a function of time.

For the next series, the system named is breast tumors. The experiment in a line: tumor uptake in tumor-bearing mice. Particulars: 24 hr post-injection.
The next series deals with primary breast cancers. The note with it: cited from earlier work.
A further series concerns adenylate cyclase. Particulars: pituitary cells; cited from earlier work.
For series [5] the following is noted: reduced from 100 for PACAP27; cited from earlier work.

Description for breast tumors: (§1) Approximately 5×10^6 viable cells from either tumor cell line are implanted in the right thigh of each mouse, and tumors are allowed to form. […] Animals are sacrificed at 15 min, 1 hr, 2 hr, 4 hr and 24 hr post-injection, and % of ID/g tissue is determined in all tissues. A control group of tumor-bearing mice is injected with PACAP27 mono-iodinated with ^125I. […] All animals are imaged using a GE STARCAM gamma camera equipped with a dedicated computer and a low energy parallel hole collimator.
(§2) The co-injected ^99mTc-TP 3475 and ^111In-DTPA-D-Phe^1-Octreotide in the mouse tissues were counted by using the characteristic energy windows for their respective radionuclides (±15 or 20%); e.g., 140 KeV for ^99mTc, and 173 KeV and 247 KeV for ^111In. The ^111In counts in the tissues were again determined when ^99mTc was completely decayed (e.g., 10-12 half-lives).
Description for in vivo: as §1, §2

In the case of “VIP28: 28-amino acid vasoactive intestinal peptide”, in series [1], the receptor binding affinity result is “binds with high affinity only to VIP-R1 and VIP-R2 receptors”. The IC50 in the series on normal lung membrane is ~15 nM.
Consider “TP 3475: PACAP27 linked via a C-terminal Aba spacer to a Gly-(D)Ala-Gly-Gly chelating agent; SEQ ID NO: 5 (HSDGIFTDSYSRYRKQMAVKKYLAAVLXGAGG; C-terminal Aba spacer, Gly-(D)Ala-Gly-Gly chelator; PACAP analog TP 3475)”, for which the “% fall in IAS tension” value in [2] was “equivalent fall in IAS tension; also recorded: equal”.
In the case of `CC[C@H](C)[C@H](NC(=O)CNC(=O)[C@H](CC(=O)O)NC(=O)[C@H](CO)NC(=O)[C@@H](N)Cc1c[nH]cn1)C(=O)N[C@@H](Cc1ccccc1)C(=O)N[C@H](C(=O)N[C@@H](CC(=O)O)C(=O)N[C@@H](CO)C(=O)N[C@@H](Cc1ccc(O)cc1)C(=O)N[C@@H](CO)C(=O)N[C@@H](CCCNC(=N)N)C(=O)N[C@@H](Cc1ccc(O)cc1)C(=O)N[C@@H](CCCNC(=N)N)C(=O)N[C@@H](CCCCN)C(=O)N[C@@H](CCC(N)=O)C(=O)N[C@@H](CCSC)C(=O)N[C@@H](C)C(=O)N[C@H](C(=O)N[C@@H](CCCCN)C(=O)N[C@@H](CCCCN)C(=O)N[C@@H](Cc1ccc(O)cc1)C(=O)N[C@@H](CC(C)C)C(=O)N[C@@H](C)C(=O)N[C@@H](C)C(=O)N[C@H](C(=O)N[C@@H](CC(C)C)C(=O)NCCCC(=O)NCC(=O)N[C@H](C)C(=O)NCC(=O)NCC(=O)O)C(C)C)C(C)C)[C@@H](C)O` [^99mTc-TP 3475, metal not drawn], the tissue uptake at 24 h in the series “in vivo” was ~0.2 %ID/g. Besides, the “reduction of tumor uptake” value with T47D xenografts is listed as “approximately 50%”. The stability entry in series [3] was “stable for 24 hr”. Also, in series [4] (Sprague-Dawley), the “blood clearance α-t½” value was “approximately 6 min” and the “blood clearance β-t½” value is given as “approximately 90 min”. Besides, in series [4], the “time in which 75% of the radioactivity is cleared from the circulation” value was “about 12 minutes”.
In the series on breast tumors, `[C-]#[N+]CC(C)(C)OC.[C-]#[N+]CC(C)(C)OC.[C-]#[N+]CC(C)(C)OC.[C-]#[N+]CC(C)(C)OC.[C-]#[N+]CC(C)(C)OC.[C-]#[N+]CC(C)(C)OC.[Tc]` [^99mTc-Sesta-MIBI] showed a tumor uptake of 0.18±0.0 % ID/g.
For `C[C@@H](O)[C@@H]1NC(=O)[C@H](CCCCN)NC(=O)[C@@H](Cc2c[nH]c3ccccc23)NC(=O)[C@H](Cc2ccccc2)NC(=O)[C@@H](NC(=O)[C@@H](Cc2ccccc2)NC(=O)CN(CCN(CCN(CC(=O)O)CC(=O)O)CC(=O)O)CC(=O)O)CSSC[C@@H](C(=O)N[C@H](CO)[C@@H](C)O)NC1=O` [^111In-DTPA-D-Phe^1-Octreotide, metal not drawn], the tissue uptake at 24 h in the series “in vivo” was 0.09 ± 0.01 %ID/g. For the same compound, the positive scintigraphy in the series on primary breast cancers (52 primary breast cancers) was 75%. Further, the “patients in whom imaging of axillae detected non-palpable, cancer-containing lymph nodes” value with primary breast cancers (patients with histologically-proven metastases) was 4 of 13.
For HSDGIFTDSYSRYRKQMAVKKYLAAVL [PACAP27], the “potency in stimulating adenylate cyclase relative to VIP28” value with adenylate cyclase is recorded as “ten times more potent”. In addition, in series [2], the “% fall in IAS tension” value is recorded as “equivalent fall in IAS tension; also recorded: equal”. Further, the receptor binding affinity result in series [1] was “binds with high affinity to PACAP, VIP-R1 and VIP-R2 receptors”. Further, the IC50 in the series with normal lung membrane was ~1.5 nM.
In the case of “PACAP27 linked to DTPA at its N-terminus: PACAP27 linked to DTPA at its N-terminus (Reubi et al. 1997) ({DTPA}-HSDGIFTDSYSRYRKQMAVKKYLAAVL; ends and bridges not checked; UniProt P18509 132-158, looked up)”, the biological activity in series [5] was < 0.01.
